Test results from patent publication US20150105252A1, “SUBSTITUTED PYRAZOLES AS HERBICIDES” (E I DU PONT DE NEMOURS AND COMPANY, priority 2013, published 2015).

How the values were obtained:
nutsedge, yellow [1] = experiment: Test C postemergence; type: in vivo, Cyperus esculentus; conditions: for Nutsedge, Yellow plant response rating: scale 0 to 100
Excerpt: (§1) Seeds of plant species selected from blackgrass (Alopecurus myosuroides), ryegrass, Italian (Italian ryegrass, Lolium multiflorum), wheat (winter wheat, Triticum aestivum), galium (catchweed bedstraw, Galium aparine), corn (Zea mays), crabgrass, large (large crabgrass, Digitaria sanguinalis), foxtail, giant (giant foxtail, Setaria faberii), johnsongrass (Sorghum halepense), lambsquarters (Chenopodium album), morningglory (Ipomoea coccinea), nutsedge, yellow (yellow nutsedge, Cyperus esculentus), pigweed (redroot pigweed, Amaranthus retroflexus), ragweed (common ragweed, Ambrosia elation), soybean (Glycine max), barnyardgrass (Echinochloa crus-galli), oilseed rape (Brassica napus), waterhemp (common waterhemp, Amaranthus rudis), oat, wild (wild oat, Avena fatua), kochia (Kochia scoparia), Surinam grass (Brachiaria decumbens), foxtail, green (green foxtail, Setaria viridis), goosegrass (Eleusine indica), bromegrass, downy (downy bromegrass, Bromus tectorum), nightshade (eastern black nightshade, Solanum ptycanthum), cocklebur (common cocklebur, Xanthium strumarium), cupgrass, woolly (woolly cupgrass, Eriochloa villosa), bermudagrass (Cynodon dactylon), sunflower, (common oilseed sunflower, Helianthus annuus), Russian thistle (Salsola kali), and velvetleaf (Abutilon theophrasti) were planted into a blend of loam soil and sand and treated preemergence with test chemicals formulated in a non-phytotoxic solvent mixture which included a surfactant.
(§2) At the same time, plants selected from these crop and weed species and also chickweed (common chickweed, Stellaria media), canarygrass (littleseed canarygrass, Phalaris minor), and deadnettle (henbit deadnettle, Lamium amplexicaule), were planted in pots containing Redi-Earth® planting medium (Scotts Company, 14111 Scottslawn Road, Marysville, Ohio 43041) comprising spaghnum peat moss, vermiculite, wetting agent and starter nutrients and treated with postemergence applications of test chemicals formulated in the same manner. Plants ranged in height from 2 to 18 cm (1- to 4-leaf stage) for postemergence treatments. Treated plants and controls were maintained in a greenhouse for 13 to 15 days, after which time all species were compared to controls and visually evaluated. Plant response ratings, summarized in Table C, are based on a scale of 0 to 100 where 0 is no effect and 100 is complete control. A dash (-) response means no test result.

lambsquarters = experiment: Test C preemergence; type: in vivo, Chenopodium album
Procedure, shortened: (§3)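 Herbicidal effect is expressed as percent visual control (0–100) judged against untreated plants 13 to 15 days after treatment in the greenhouse. Preemergence pots contained seeds in a soil–sand blend; postemergence plants, 2–18 cm tall, grew in peat-based planting medium.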

kochia = experiment: Test C postemergence; type: in vivo, Kochia scoparia; conditions: for Kochia plant response rating: scale 0 to 100
Procedure, shortened: as §3

johnsongrass = experiment: Test C postemergence; type: in vivo, Sorghum halepense; conditions: for Johnsongrass plant response rating: scale 0 to 100
Procedure, shortened: as §3

morningglory = experiment: Test C preemergence; type: in vivo, Ipomoea coccinea
Excerpt: as §1, §2

soybean = experiment: Test C postemergence; type: in vivo, Glycine max; conditions: postemergence
Procedure, shortened: as §3

nutsedge, yellow [2] = experiment: Test C preemergence; type: in vivo, Cyperus esculentus
Procedure, shortened: as §3

velvetleaf = experiment: Test C preemergence; type: in vivo, Abutilon theophrasti
Excerpt: as §1, §2

barnyardgrass = experiment: Test A preemergence; type: in vivo, Echinochloa crus-galli
Procedure, shortened: (§4)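 Pre- and postemergence greenhouse test; loam+sand; cpd in non-phytotox. solvent/surfactant; post at 1–2 leaf, 2–10 cm; visual score ~10 d, 0 = none, 100 = complete control.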

crabgrass, large = experiment: Test A postemergence; type: in vivo, Digitaria sanguinalis
Procedure, shortened: as §4

rice = experiment: Test B flood; type: in vivo, Oryza sativa; conditions: 250 g ai/ha, visual rating on 0 to 100 scale (0 no effect, 100 complete control), 13 to 15 days
Procedure, shortened: (§5)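 Visual ratings on a 0–100 scale, where 0 means no effect and 100 means complete control, were assigned by comparison with controls 13 to 15 days after treatment. Compounds went into paddy water over 2-leaf plants flooded to 3 cm.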

ducksalad = experiment: Test B flood; type: in vivo, Heteranthera limosa; conditions: 250 g ai/ha, visual rating on 0 to 100 scale (0 no effect, 100 complete control), 13 to 15 days
Procedure, shortened: as §5

waterhemp = experiment: Test C preemergence; type: in vivo, Amaranthus rudis; conditions: for Plant response rating, Waterhemp: Preemergence, scale 0 to 100
Excerpt: as §1, §2

[3] = postemergence, 250 g ai/ha, scale 0 to 100 (0 no effect, 100 complete control)
[4] = postemergence, 125 g ai/ha, scale 0 to 100, 0 no effect, 100 complete control
[5] = preemergence, 31 g ai/ha, scale 0 to 100 (0 no effect, 100 complete control), 13 to 15 days
[6] = preemergence, 62 g ai/ha, 13 to 15 days, scale 0 to 100, 0 = no effect, 100 = complete control
[7] = preemergence, 125 g ai/ha, scale 0 to 100, 0 is no effect, 100 is complete control
[8] = preemergence, 125 g ai/ha, visual injury, 0 to 100 scale, approx. 10 days
[9] = postemergence, 125 g ai/ha, about 10 days, visual rating on 0 to 100 scale (0 no effect, 100 complete control)
[10] = Preemergence, 4 g ai/ha, scale 0 to 100
[11] = Preemergence, 8 g ai/ha, scale 0 to 100
[12] = Preemergence, 16 g ai/ha, scale 0 to 100
[13] = preemergence, 31 g ai/ha, visual rating, scale 0 to 100 (0 no effect, 100 complete control), 13 to 15 days

With `CCONC(=O)c1cc(CC)n(Cc2cccc(OC(F)(F)F)c2)n1` [Compound 72] the “Nutsedge, Yellow plant response rating” value (nutsedge, yellow [1]; Postemergence, 31 g ai/ha) was 0, the “Nutsedge, Yellow plant response rating” value (nutsedge, yellow [1]; postemergence, 62 g ai/ha) was 0 and the “Plant response rating, Nutsedge, Yellow” value (nutsedge, yellow [1]; [3]) was 0. For the same compound, the “Plant response rating, Nutsedge, Yellow” value (nutsedge, yellow [1]; [4]) was 0, the “Plant response rating (scale of 0 to 100), Lambsquarters” value (lambsquarters; Preemergence, 250 g ai/ha) was 100 and the “Lambsquarters plant response rating” value (lambsquarters; [5]) was 100. For the same compound, the “Plant response rating, Lambsquarters” value (lambsquarters; [6]) was 100, the “Lambsquarters plant response rating” value (lambsquarters; [7]) was 100 and the “Kochia plant response rating” value (kochia; Postemergence, 31 g ai/ha) was 10. The “Kochia plant response rating” value (kochia; postemergence, 62 g ai/ha) was 25, the “Plant response rating, Kochia” value (kochia; [3]) was 55 and the “Plant response rating, Kochia” value (kochia; [4]) was 40. The “Johnsongrass plant response rating” value (johnsongrass; Postemergence, 31 g ai/ha) was 0, the “Johnsongrass plant response rating” value (johnsongrass; postemergence, 62 g ai/ha) was 0 and the “Plant response rating, Johnsongrass” value (johnsongrass; [3]) was 0. For the same compound, the “Plant response rating, Johnsongrass” value (johnsongrass; [4]) was 0, the “Plant response rating (scale of 0 to 100), Morningglory” value (morningglory; Preemergence, 250 g ai/ha) was 85 and the “Morningglory plant response rating” value (morningglory; [5]) was 15. For the same compound, the “Plant response rating, Morningglory” value (morningglory; [6]) was 65, the “Morningglory plant response rating” value (morningglory; [7]) was 85 and the “Soybean plant response rating” value (soybean; 62 g ai/ha, scale 0 to 100) was 20. The “Plant response rating, Soybean” value (soybean; 250 g ai/ha, scale 0 to 100 (0 no effect, 100 complete control)) was 40, the “Plant response rating, Soybean” value (soybean; 125 g ai/ha, scale 0 to 100, 0 no effect, 100 complete control) was 35 and the “Plant response rating (scale of 0 to 100), Nutsedge, Yellow” value (nutsedge, yellow [2]; Preemergence, 250 g ai/ha) was 85. For the same compound, the “Nutsedge, Yellow plant response rating” value (nutsedge, yellow [2]; [5]) was 0, the “Plant response rating, Nutsedge, Yellow” value (nutsedge, yellow [2]; [6]) was 40 and the “Nutsedge, Yellow plant response rating” value (nutsedge, yellow [2]; [7]) was 60. For the same compound, the “Plant response rating (scale of 0 to 100), Velvetleaf” value (velvetleaf; Preemergence, 250 g ai/ha) was 100, the “Velvetleaf plant response rating” value (velvetleaf; [5]) was 20 and the “Plant response rating, Velvetleaf” value (velvetleaf; [6]) was 100. The “Velvetleaf plant response rating” value (velvetleaf; [7]) was 100, the “Barnyardgrass plant response rating” value (barnyardgrass; Preemergence, 500 g ai/ha, 0 to 100 scale, 0 no effect, 100 complete control) was 100 and the “Barnyardgrass plant response rating” value (barnyardgrass; [8]) was 90. For the same compound, the “Crabgrass, Large plant response rating” value (crabgrass, large; Postemergence, 500 g ai/ha, visual rating after approx. 10 days, 0 to 100 scale (0 no effect, 100 complete control)) was 90 and the “Crabgrass, Large plant response rating” value (crabgrass, large; [9]) was 80.

`CCOc1cc(C(=O)NCC(F)(F)F)nn1Cc1cc(C(F)(F)F)nn1C` [Compound 140] was tested, and the “Plant response rating, Lambsquarters” value (lambsquarters; [10]) was 5, the “Plant response rating, Lambsquarters” value (lambsquarters; [11]) was 55 and the “Plant response rating, Lambsquarters” value (lambsquarters; [12]) was 40. For the same compound, the “Lambsquarters plant response rating” value (lambsquarters; [13]) was 75, the “Plant response rating, Morningglory” value (morningglory; [10]) was 5 and the “Plant response rating, Morningglory” value (morningglory; [11]) was 5. The “Plant response rating, Morningglory” value (morningglory; [12]) was 95, the “Morningglory plant response rating” value (morningglory; [13]) was 90 and the “Plant response rating, Rice” value (rice) was 40. The “Plant response rating, Ducksalad” value (ducksalad) was 95, the “Plant response rating, Nutsedge, Yellow” value (nutsedge, yellow [2]; [10]) was 0 and the “Plant response rating, Nutsedge, Yellow” value (nutsedge, yellow [2]; [11]) was 15. For the same compound, the “Plant response rating, Nutsedge, Yellow” value (nutsedge, yellow [2]; [12]) was 0, the “Nutsedge, Yellow plant response rating” value (nutsedge, yellow [2]; [13]) was 15 and the “Plant response rating, Waterhemp” value (waterhemp; 4 g ai/ha) was 70. For the same compound, the “Plant response rating, Waterhemp” value (waterhemp; 8 g ai/ha) was 70, the “Plant response rating, Waterhemp” value (waterhemp; 16 g ai/ha) was 85 and the “Waterhemp plant response rating” value (waterhemp; [13]) was 95. For the same compound, the “Plant response rating, Velvetleaf” value (velvetleaf; [10]) was 0, the “Plant response rating, Velvetleaf” value (velvetleaf; [11]) was 5 and the “Plant response rating, Velvetleaf” value (velvetleaf; [12]) was 10. For the same compound, the “Velvetleaf plant response rating” value (velvetleaf; [13]) was 45, the “Barnyardgrass plant response rating” value (barnyardgrass; [8]) was 90 and the “Barnyardgrass plant response rating” value (barnyardgrass; preemergence, 500 g ai/ha, visual injury after approx. 10 days, 0 to 100 scale (0 no effect, 100 complete control)) was 100. The “Crabgrass, Large plant response rating” value (crabgrass, large; Postemergence, 500 g ai/ha, 0 to 100 scale (0 no effect, 100 complete control)) was 90 and the “Crabgrass, Large plant response rating” value (crabgrass, large; [9]) was 70.
